Source: patent US20170184604A1, “DD1ALPHA RECEPTOR AND USES THEREOF IN IMMUNE DISORDERS” (THE GENERAL HOSPITAL CORPORATION, priority 2014, published 2017)

Columns and labels:
[1] = biological target: T1, PD-1 (Homo sapiens, UniProt Q15116); assay: Ig fusion protein-pull down assay; assay type: binding
T1 construct: full length human PD-1 and Tim3 cDNA (Sino biological) were cloned into pcDNA3.1(−) tagged with HA at C-terminus; host or cells: HEK293T
Experimental: FIGS. 6A-6E show physical association of DD1α with PD1 but not with PD-L1. (FIG. 6A) Interaction of DD1α with PD1 or DD1α. […] The bound Ig fusion proteins were detected with anti-Ig-APC. Empty vector (pcDNA3.1)-transfected cells stained with Ig proteins are shown as a negative control (gray filled) and other staining is shown as black open. (FIG. 6B) DD1α binds to both DD1α and PD1 on CD4+ T cells. Purified CD4+ T cells from Wt and DD1α−/− mice were assayed for binding to Ig fused DD1α or PD1 proteins. Cells were incubated with DD1α-Ig (open), PD1-Ig (open), or control Ig proteins (gray filled) and the bound Ig fusion proteins were detected by anti-Ig-APC. […] The bound Ig fusion proteins were detected by anti-Ig-APC. Binding amounts were determined by percentage of APC positive cells compared to control Ig protein-bound cells. (FIG. 6C) Ig-pulldown experiments show DD1α interaction with both DD1α and PD1. […] The bead bound proteins were eluted and determined by western blot analysis using anti-HA antibody (asterisks). […] The bead bound proteins were eluted and detected by western blot analysis with anti-DD1α or anti-PD1 antibody (asterisk). […] The levels of indicated proteins were analyzed by western blot analysis. Total RNAs from control siRNA or p53 siRNA transfected MCF7 cells were assessed for mRNA levels of PD1 or PD-L1 by real-time quantitative PCR. […]

[2] = tested on: CD4+ or CD8+ T cells from wt- or DD1α−/− mice; assay: Mouse T cell activation assay (CFSE proliferation); assay type: cell-based
Experimental: Enriched CD4+ and CD8+ T cells from Wt and DD1α−/− mice were stimulated, with 2.5 μg/ml anti-CD3 alone or together with DD1α-Ig or control Ig. The proliferations of CD4+ T cells (top graphs) or CD8+ T cells (bottom graphs) were determined by the percentage of CFSE-diluted CD8+ cells on day 3. The levels of cytokines (IFN-γ and TNF-α) in culture supernatant on day 2 were analyzed by ELISA. The results represent mean±SD from three experiments.
The inventors have discovered that DD1αregulates T cell activation through DD1α on T cells. […] The proliferations of CD4+ T cells were determined by percentage of CFSE-diluted CD4+ cells on day 3 and IFN-γ and levels in culture supernatants on day 2 were analyzed by ELISA. […] The proliferations of CD8+ T cells were determined by percentage of CD8+ T cells containing diluted CFSE signal on day 3. The cytokine levels in culture supernatant were analyzed by ELISA on day 2.
The amount of Ig protein was kept constant at 10 μg/ml by the addition of control Ig protein. Human CD4+ or CD8+ T cells were purified from freshly isolated PBMCs using CD4+ T Cell Isolation Kit II, human or CD8+ T Cell Isolation Kit, human (Miltenyi Biotec). Mouse CD4+ and CD8+ T cells were purified from splenocytes freshly isolated from mice using CD4+ T Cell Isolation Kit II, mouse or CD8a+ T Cell Isolation Kit II, mouse (Miltenyi Biotec). Purity was confirmed to be over 90% by flow cytometry. The T cells were labeled with 1 μM CFSE, quenched by cold FBS and incubated in the anti-CD3 & Ig proteins-coated plates. On day 2 after stimulation, supernatant was collected and cytokines were assayed by ELISA. On day 3, cells were stained with anti-CD4-APC (OKT4, eBioscience for human CD4+ T cells; RM4-5, eBioscience for mouse CD4+ T cells) or anti-CD8-APC (SK1, eBioscience for human CD8+ T cells; 53-6.7, eBioscience for mouse CD8+ T cells) and then analyzed for CFSE dilution by flow cytometry.

T1 sequence (Q15116 25-288): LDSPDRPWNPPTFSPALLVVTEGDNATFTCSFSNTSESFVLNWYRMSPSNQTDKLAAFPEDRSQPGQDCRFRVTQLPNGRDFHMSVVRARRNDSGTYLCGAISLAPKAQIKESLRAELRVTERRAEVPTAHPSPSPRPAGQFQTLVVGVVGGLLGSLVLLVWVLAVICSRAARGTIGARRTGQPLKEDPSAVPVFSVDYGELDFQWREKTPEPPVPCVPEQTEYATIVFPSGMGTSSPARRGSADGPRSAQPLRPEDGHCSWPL

pull down of PD-1 ([1]; lysates from transfected 293T cells): pulled down | pull down of endogenous PD-1 ([1]; lysates of Nutlin-3-treated MCF7 cells): found
Substance: DD1α-Ig: the extracellular region of DD1α fused with the immunoglobulin G Fc segment
inhibition of anti-CD3-induced CD4+ or CD8+ T cell proliferation ([2]; DD1α−/− CD4+ or CD8+ T cells): ~30% | inhibition of anti-CD3-induced CD4+ or CD8+ T cell proliferation ([2]; T cells from wt mice): ~50% | mouse CD4+ and CD8+ T cell activation ([2]; dose-dependent): inhibitory effect
